The subject of one assay is human IL-1α. The assay is described as follows: cytokine production in DSEK cells, ELISA. The settings on record: DSEK cell incubation, supernatant every 24 hours. It counts as cell-based. How it is done:
Now, in the DSEK cell incubation, 150 μl/well of the supernatant liquid of the medium were recovered every 24 hours and influence of 4-hydroxy-2-cyclopenten-1-one or 4,5-dihydroxy-2-pentenal on the production of cytokines (human TGF-β, human FGF-β, human IL-1α and human IL-10) was measured using an ELISA-kit specific to each of the cytokine (the kit manufactured by INTERGEN or human FGF-β and human IL-10; and the kit manufactured by Promega for human IL-1α and human TGF-β).

In the next assay the test system is U937 cells. The assay is described as follows: cell growth of U937 cells, Premix WST-1. It counts as cell-based, human. How it is done: (1) U937 cells (ATCC CRL-1593) which were […] established from pleural effusion of patients suffering from […] were suspended in an RPMI 1640 medium containing 10% of FBS to make its concentration 5×10^5 cells/ml and each 100 μl of the suspension was placed in each well of a 96-well microtiter plate. […] The mixture was incubated at 37° C. in the presence of carbon dioxide gas and, after 24, 48 and 72 hours, 10 μl of Premix WST-1 (MK 400; manufactured by Takara Shuzo) were added. The mixture was made to react at 37° C. for three hours and the value (A450-650) obtained by subtracting the absorbance at 650 nm (A650) from that at 450 nm (A450) was defined as a degree of cell growth.
Background: Tetrazolium assays rely on reduction of a dye to a coloured formazan, in cell work by metabolically active cells.

In assay [1] the test system is hepatoblastoma HepG2 cells. The assay is described as follows: cell growth of HepG2 cells, Premix WST-1. The class given is cell-based, human. The method, then:
HepG2 cells (ACTT HB-8065) which were the cell strains established from the patients suffering from primary hepatoblastoma were suspended in a DMEM medium (manufactured by Gibco) containing 10% of FBS (manufactured by BioWhittaker) to an extent of 3.8×10^3 cells/ml, each 200 μl of the suspension were placed in each well of a 96-well microtiter plate and incubated at 37° C. in the presence of 5% carbon dioxide gas until the cells saturated in an incubator, the medium was exchanged, then 4-hydroxy-2-cyclopenten-1-one or […], the mixture was incubated for 24, 48 or 72 hours, 10 μl of Premix WST-1 (MK 400; manufactured by Takara Shuzo) were added thereto, the mixture was made to react at 37° C. for three hours and the value (A450-650) obtained by subtracting the absorbance at 650 nm (A650) from that at 450 nm (A450) was defined as a degree of cell growth.

A further assay concerns HL-60 cells. The assay is described as follows: analysis of fragmentation of DNA. It counts as cell-based, human. How it is done: (2) HL-60 cells which were incubated on an RPMI 1640 medium containing 10% of fetal bovine serum processed at 56° C. for 30 minutes were suspended in an RPMI 1640 medium to make 2.5×10^5 cells/5 ml.
To 5 ml the suspension were added 10 μl of 12.5 mM, 25 mM, 50 mM or 100 mM of a 70% ethanolic solution of 4,5-dihydroxy-2-pentenal, 0.05 mM, 0.5 mM, 5 mM or 50 mM of a 70% ethanolic solution of 4-hydroxy-2-cyclopenten-1-one, 5 mM, 10 mM or 20 mM of a 70% ethanolic solution of 4-(9-adeninyl)-2-cyclopenten-1-one prepared in Example 4-(4), 2.5 mM, 5 mM, 15 mM or 25 mM of a 70% ethanolic solution of 4-(9-guaninyl)-2-cyclopenten-1-one prepared in Example 4-(5) 75 mM, 150 mM or 300 mM of a 70% ethanolic solution of 1,5-epoxy-1-hydroxy-3-penten-2-one prepared in Example 5-(2) or 5 mM, 25 mM or 50 mM of a 70% ethanolic solution of 2-(trans-3,4-dihydroxy-1-butenyl)-4-(trans-2-formylvinyl)-1,3-dioxolane prepared in Example 6-(2) followed by incubating at 37° C. in the presence of 5% of carbon dioxide gas for 24 hours and 48 hours and the resulting cells were subjected to a measurement of apoptosis cells using FACScan by a method mentioned in pages 129-130 of “Experimental Protocol Series—Apoptosis Experiment Protocol” which was an extra issue of “Saibo Kogaku (Cell Technology)” (published by Shujunsha in 1994) and also to a measurement of analysis of fragmentation of DNA by a method mentioned in page 61-63 of “Biomanual UP Series—New Experimental Methods for Apoptosis” (published by Yodosha in 1995).

In assay [2] the test system is heat shock protein of 70 kDa in HL-60. The assay is described as follows: induction of heat shock protein of 70 kDa, SDS-PAGE and blotting. The class given is cell-based, human. More on the design: key: “−” means no induction; “±” means a little induction; “+” shows the intensity of induction and the more the “+”, the more the induction; ++: “+” shows the intensity of induction and the more the “+”, the more the induction; +++: “+” shows the intensity of induction and the more the “+”, the more the induction. Conditions: six hours.

In the case of `O=C/C=C/C1COC(/C=C/C(O)CO)O1` (stereo not drawn) [2-(trans-3,4-dihydroxy-1-butenyl)-4-(trans-2-formylvinyl)-1,3-dioxolane], the “production of human IL-1α” value in the assay with human IL-1α is reported as “activated”.
For the compound `O=C1C=CC(O)C1` (centres unmarked) [4-hydroxy-2-cyclopenten-1-one], the “Degree of Cell Growth” value is reported as 0.501 A450-650 with U937 cells (50 μM, 24 hours); 0.930 A450-650 in the assay on U937 cells (50 μM, 48 hours); 0.875 A450-650 in the assay with U937 cells (50 μM, 72 hours); 0.557 A450-650 in the assay with U937 cells (75 μM, 24 hours); 0.968 A450-650 in the assay on U937 cells (75 μM, 48 hours); 0.821 A450-650 in the assay with U937 cells (75 μM, 72 hours). Also, the “Degree of Cell Growth” value in the assay on U937 cells (100 μM, 24 hours) is reported as 0.591 A450-650; in the assay on U937 cells (100 μM, 48 hours), 1.054 A450-650; in the assay with U937 cells (100 μM, 72 hours) it was 0.532 A450-650; in the assay with U937 cells (150 μM, 24 hours), 0.524 A450-650; in the assay on U937 cells (150 μM, 48 hours) it was 1.126 A450-650; in the assay with U937 cells (150 μM, 72 hours), 0.478 A450-650. Further, the “Degree of Cell Growth” value in the assay with U937 cells (200 μM, 24 hours) is listed as 0.353 A450-650; in the assay on U937 cells (200 μM, 48 hours), 0.643 A450-650; with U937 cells (200 μM, 72 hours) it was 0.338 A450-650; in assay [1] (25 μM, 24 hours), 1.30 A450-650; in assay [1] (25 μM, 48 hours), 0.70 A450-650; in assay [1] (25 μM, 72 hours), 0.49 A450-650. Moreover, the “Degree of Cell Growth” value in assay [1] (50 μM, 24 hours) came out at 1.38 A450-650; in assay [1] (50 μM, 48 hours) it was 0.81 A450-650; in assay [1] (50 μM, 72 hours), 0.47 A450-650; in assay [1] (100 μM, 24 hours), 1.31 A450-650; in assay [1] (100 μM, 48 hours), 0.56 A450-650; in assay [1] (100 μM, 72 hours) it was 0.35 A450-650. Also, the “Degree of Cell Growth” value stood at 1.23 A450-650 in assay [1] (150 μM, 24 hours); 0.43 A450-650 in assay [1] (150 μM, 48 hours); 0.30 A450-650 in assay [1] (150 μM, 72 hours). Besides, in the assay on HL-60 cells (HL-60, 10 μM final concentration), the “fragmentation of DNA” value is reported as “confirmed”. The “intensity of induction of heat shock protein of 70 kDa” value in assay [2] (HL-60, 2.5 μM) is “−”; in assay [2] (HL-60, 10 μM) it was “+”. In addition, the “production of human IL-1α” value with human IL-1α is recorded as “inhibited”.
As for `Nc1nc2c(ncn2C2C=CC(=O)C2)c(=O)[nH]1` (centres unmarked) [4-(9-guaninyl)-2-cyclopenten-1-one], in the assay on human IL-1α, the “production of human IL-1α” value was “activated”.
Turning to `O=CC=CC(O)CO` (single isomer, unassigned) [4,5-dihydroxy-2-pentenal, trans-4,5-dihydroxy-2-pentenal], the “Degree of Cell Growth” value in the assay with U937 cells (50 μM, 24 hours) stood at 0.821 A450-650; in the assay on U937 cells (50 μM, 48 hours), 1.471 A450-650; with U937 cells (50 μM, 72 hours), 1.245 A450-650; in the assay on U937 cells (75 μM, 24 hours) it was 0.606 A450-650; in the assay on U937 cells (75 μM, 48 hours), 0.879 A450-650; in the assay with U937 cells (75 μM, 72 hours) it was 0.862 A450-650. Also, the “Degree of Cell Growth” value is given as 0.560 A450-650 with U937 cells (100 μM, 24 hours); 0.948 A450-650 in the assay on U937 cells (100 μM, 48 hours); 0.597 A450-650 in the assay with U937 cells (100 μM, 72 hours); 0.505 A450-650 in the assay with U937 cells (150 μM, 24 hours); 0.823 A450-650 with U937 cells (150 μM, 48 hours); 0.465 A450-650 with U937 cells (150 μM, 72 hours). The “Degree of Cell Growth” value in the assay on U937 cells (200 μM, 24 hours) was found to be 0.370 A450-650; in the assay on U937 cells (200 μM, 48 hours), 0.644 A450-650; with U937 cells (200 μM, 72 hours), 0.753 A450-650; in assay [1] (25 μM, 24 hours), 3.39 A450-650; in assay [1] (25 μM, 48 hours) it was 2.69 A450-650; in assay [1] (25 μM, 72 hours), 1.70 A450-650. The “Degree of Cell Growth” value in assay [1] (50 μM, 24 hours) is on record as 1.97 A450-650; in assay [1] (50 μM, 48 hours), 2.96 A450-650; in assay [1] (50 μM, 72 hours) it was 1.70 A450-650; in assay [1] (100 μM, 24 hours) it was 1.81 A450-650; in assay [1] (100 μM, 48 hours), 2.70 A450-650; in assay [1] (100 μM, 72 hours) it was 0.89 A450-650. Also, the “Degree of Cell Growth” value amounted to 1.40 A450-650 in assay [1] (150 μM, 24 hours); 0.79 A450-650 in assay [1] (150 μM, 48 hours); 0.35 A450-650 in assay [1] (150 μM, 72 hours). For the same compound, the “fragmentation of DNA” value is “confirmed” in the assay with HL-60 cells (HL-60, 50 μM final concentration); “confirmed” in the assay with HL-60 cells (HL-60, 100 μM final concentration); “confirmed” in the assay with HL-60 cells (HL-60, 200 μM final concentration). Besides, the “intensity of induction of heat shock protein of 70 kDa” value in assay [2] (HL-60, 1.25 μM) is on record as “−”. Moreover, the “production of human IL-1α” value with human IL-1α is reported as “activated”.

Values taken from patent US6809091B1, “Substances capable of inducing apoptosis” (Takara Bio Inc., priority 1998, dated 2004).
